Measurements published in patent publication US20220184155A1, “BACTERIOPHAGES FOR INHIBITING BACTERIA” (REGENTS OF THE UNIVERSITY OF MINNESOTA, priority 2020, published 2022).
Read-outs that look alike come from different tables or passages of the source.

Test system: mix-culture of E. coli strains (E20, 41, 55, and 59)
Assay: Checkerboard titration assay, phage cocktail with antibiotics
Type: cell-based
Protocol: A checkerboard titration assay was performed as described previously (Hsieh et al. Diagn Microbiol Infect Dis 16, 343-349 (1993)). Briefly, antibiotics (cefoperazone, vancomycin, polymyxin B, and rifampicin) were two-fold serially diluted on each column, and phage cocktail was 10-fold diluted on each row. The mix-culture of E. coli strains (E20, 41, 55, and 59) was added to 10^5 CFU/well, and the plate was incubated at 42° C. for 24 hours. The OD600 was measured with SpectaMax i3 Platfrom (Molecular Devices, San Jose, Calif.), and shown as a heat plot.
Because the selective pressure of the enrichment media is determined by antibiotic supplements in the media, the inhibition efficacy of the phage cocktail was measured in the presence of four antibiotics (cefoperazone, vancomycin, polymyxin B, and rifampicin) used in BB and PB. […] A checkerboard assay was performed to examine the antimicrobial activity of the phage cocktail in combination with antibiotics.

[1] = antibiotic without the phage cocktail, 42° C., 24 hours
[2] = Escherichia coli, antibiotic without the phage cocktail, 42° C., 24 hours, read-out: MIC

MIC [2] [µg/mL]	Compound	MIC [1] [µg/mL]	MIC (Escherichia coli, 24 h) [µg/mL]
–	polymyxin B	4	–
32	CO[C@H]1/C=C/O[C@@]2(C)Oc3c(C)c(O)c4c(O)c(c(/C=N/N5CCN(C)CC5)c(O)c4c3C2=O)NC(=O)/C(C)=C\C=C\[C@H](C)[C@H](O)[C@@H](C)[C@@H](O)[C@@H](C)[C@H](OC(C)=O)[C@@H]1C [rifampicin]	–	–
> 512	CCN1CCN(C(=O)N[C@@H](C(=O)N[C@@H]2C(=O)N3C(C(=O)O)=C(CSc4nnnn4C)CS[C@H]23)c2ccc(O)cc2)C(=O)C1=O [cefoperazone]	> 512	–
–	CN[C@H](CC(C)C)C(=O)N[C@H]1C(=O)N[C@@H](CC(N)=O)C(=O)N[C@H]2C(=O)N[C@H]3C(=O)N[C@H](C(=O)N[C@H](C(=O)O)c4cc(O)cc(O)c4-c4cc3ccc4O)[C@H](O)c3ccc(c(Cl)c3)Oc3cc2cc(c3O[C@@H]2O[C@H](CO)[C@@H](O)[C@H](O)[C@H]2O[C@H]2C[C@](C)(N)[C@H](O)[C@H](C)O2)Oc2ccc(cc2Cl)[C@H]1O [vancomycin]	–	64
